From ChEMBL document CHEMBL2074462, “MRP4: A previously unidentified factor in resistance to nucleoside-based antiviral drugs” (Nat Med, 1999)

Biological target: T1, ATP-binding cassette sub-family C member 4 (Homo sapiens, UniProt O15439)
T1 sequence (O15439 whole entry): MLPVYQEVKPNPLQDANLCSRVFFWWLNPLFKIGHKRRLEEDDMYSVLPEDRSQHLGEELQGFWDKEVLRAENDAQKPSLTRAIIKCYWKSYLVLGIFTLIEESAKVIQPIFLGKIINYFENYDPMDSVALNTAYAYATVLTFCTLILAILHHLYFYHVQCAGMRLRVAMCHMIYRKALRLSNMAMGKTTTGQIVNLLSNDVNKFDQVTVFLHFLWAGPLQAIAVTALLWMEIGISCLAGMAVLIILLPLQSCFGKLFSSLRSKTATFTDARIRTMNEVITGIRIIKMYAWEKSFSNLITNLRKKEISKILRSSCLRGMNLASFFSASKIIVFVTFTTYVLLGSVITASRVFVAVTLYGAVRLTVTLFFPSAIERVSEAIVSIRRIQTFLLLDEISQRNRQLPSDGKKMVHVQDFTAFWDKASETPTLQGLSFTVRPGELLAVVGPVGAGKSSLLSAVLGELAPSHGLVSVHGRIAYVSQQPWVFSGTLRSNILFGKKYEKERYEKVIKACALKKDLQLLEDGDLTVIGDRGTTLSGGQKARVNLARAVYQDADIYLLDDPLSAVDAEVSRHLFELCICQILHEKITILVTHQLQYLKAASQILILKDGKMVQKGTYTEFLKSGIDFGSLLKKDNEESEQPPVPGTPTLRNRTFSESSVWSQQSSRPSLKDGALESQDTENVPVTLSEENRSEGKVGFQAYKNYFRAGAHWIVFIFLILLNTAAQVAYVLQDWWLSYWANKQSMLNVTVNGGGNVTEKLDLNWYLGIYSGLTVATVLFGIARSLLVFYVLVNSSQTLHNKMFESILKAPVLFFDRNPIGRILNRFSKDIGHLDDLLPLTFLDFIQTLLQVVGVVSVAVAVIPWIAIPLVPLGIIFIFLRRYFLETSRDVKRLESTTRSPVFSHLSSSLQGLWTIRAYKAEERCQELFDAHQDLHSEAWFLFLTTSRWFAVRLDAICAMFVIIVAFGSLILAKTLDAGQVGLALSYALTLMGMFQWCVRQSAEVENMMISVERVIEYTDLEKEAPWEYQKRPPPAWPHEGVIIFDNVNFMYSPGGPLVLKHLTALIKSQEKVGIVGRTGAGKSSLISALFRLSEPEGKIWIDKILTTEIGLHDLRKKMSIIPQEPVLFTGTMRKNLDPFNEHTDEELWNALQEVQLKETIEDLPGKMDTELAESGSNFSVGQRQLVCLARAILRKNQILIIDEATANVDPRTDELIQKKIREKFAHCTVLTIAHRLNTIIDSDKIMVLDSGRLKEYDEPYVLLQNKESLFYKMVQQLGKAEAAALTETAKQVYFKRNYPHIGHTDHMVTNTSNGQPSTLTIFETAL
Assay: TP_TRANSPORTER: efflux in CEM-r1 cells
Type: functional, cell-based

SMILES | Activity
Cc1cn([C@H]2C[C@H](N=[N+]=[N-])[C@@H](COP(=O)(O)O)O2)c(=O)[nH]c1=O [AZIDOTHYMIDINE MONOPHOSPHATE] | substrate [+]
Nc1ncnc2c1ncn2CCOCP(=O)(O)O [ADEFOVIR] | substrate [+]
